Test results published in publication PMC12446779, “Structural basis of transglucosylation in dextran dextrinase, a homolog of anomer-inverting GH15 glucoside hydrolases” (The Journal of Biological Chemistry, 2025).

Assays:
[1] = biological target: T1, Δ382C (DDase-Δ382C) (Gluconobacter oxydans, UniProt A0A0M5MSC0, E858A); assay: glycosynthase reaction, isomaltotetraose formation by HPAEC-PAD; assay type: biochemical; conditions: 12.5 mM donor, 50 mM isomaltotriose acceptor, 130 mM sodium acetate pH 4.2, 35 °C
T1 construct: gene HKD20_12845; C-terminal truncation Met1-Ser902 (domains N1, N2, HLH, A); N-terminal His6 tag (MNHKVHHHHHHIEGRHMEL) kept; E. coli BL21-CodonPlus(DE3)-RIL; 921 residues with tag; dimer 195,604 Da
T1 sequence (A0A0M5MSC0 entry or part of it E858A): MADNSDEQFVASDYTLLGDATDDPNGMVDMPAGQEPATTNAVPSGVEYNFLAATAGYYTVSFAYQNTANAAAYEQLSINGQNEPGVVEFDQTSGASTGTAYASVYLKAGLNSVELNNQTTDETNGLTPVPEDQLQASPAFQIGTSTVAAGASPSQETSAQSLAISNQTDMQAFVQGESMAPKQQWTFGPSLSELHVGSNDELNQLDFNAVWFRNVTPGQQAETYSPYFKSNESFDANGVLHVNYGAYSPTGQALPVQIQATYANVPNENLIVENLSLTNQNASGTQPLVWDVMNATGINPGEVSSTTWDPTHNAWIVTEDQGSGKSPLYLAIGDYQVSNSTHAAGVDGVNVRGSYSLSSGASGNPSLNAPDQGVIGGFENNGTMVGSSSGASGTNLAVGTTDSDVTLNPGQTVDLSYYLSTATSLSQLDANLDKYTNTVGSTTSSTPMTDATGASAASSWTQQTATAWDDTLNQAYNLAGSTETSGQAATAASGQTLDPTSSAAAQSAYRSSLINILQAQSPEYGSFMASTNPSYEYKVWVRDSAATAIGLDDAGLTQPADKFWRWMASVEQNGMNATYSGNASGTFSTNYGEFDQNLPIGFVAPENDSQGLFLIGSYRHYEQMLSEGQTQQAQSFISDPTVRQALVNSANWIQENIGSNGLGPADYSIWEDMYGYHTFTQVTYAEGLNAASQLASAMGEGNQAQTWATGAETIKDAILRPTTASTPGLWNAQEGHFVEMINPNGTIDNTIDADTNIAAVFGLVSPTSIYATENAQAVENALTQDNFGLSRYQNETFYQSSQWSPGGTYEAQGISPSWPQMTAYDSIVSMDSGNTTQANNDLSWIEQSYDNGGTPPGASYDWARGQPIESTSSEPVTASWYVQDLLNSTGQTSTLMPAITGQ

[2] = biological target: T2, Δ382C (DDase-Δ382C) (Gluconobacter oxydans, UniProt A0A0M5MSC0, E858S); assay: as above; assay type: biochemical; conditions: 12.5 mM donor, 50 mM isomaltotriose acceptor, 130 mM sodium acetate pH 4.2, 35 °C
T2 construct: gene HKD20_12845; C-terminal truncation Met1-Ser902 (domains N1, N2, HLH, A); N-terminal His6 tag (MNHKVHHHHHHIEGRHMEL) kept; E. coli BL21-CodonPlus(DE3)-RIL; 921 residues with tag; dimer 195,604 Da
T2 sequence (A0A0M5MSC0 entry or part of it E858S): as the sequence (A0A0M5MSC0 entry or part of it E858A) above, with A858S counted along it

OC[C@H]1O[C@@H](F)[C@H](O)[C@@H](O)[C@@H]1O [β-GF, β-D-glucosyl fluoride]
glycosynthase reaction, isomaltotetraose formation by HPAEC-PAD [1]: isomaltotetraose (IG4) was produced from β-D-glucosyl fluoride (β-GF) and IG3 by E858A and E858S | glycosynthase reaction, isomaltotetraose formation by HPAEC-PAD [2]: isomaltotetraose (IG4) was produced from β-D-glucosyl fluoride (β-GF) and IG3 by E858A and E858S
